Results as given in article PMC2970562, “High-Affinity Inhibitors of Human NAD^+-Dependent 15-Hydroxyprostaglandin Dehydrogenase: Mechanisms of Inhibition and Structure-Activity Relationships” (PLoS ONE, 2010).

Assays:
[1] = target: T1, human 15-PGDH (Homo sapiens, UniProt P15428); experiment: Differential scanning fluorimetry (DSF), thermal stabilization; type: binding; conditions: 1 µM protein, compound 50 or 250 µM, N/A = no unfolding transition observed in DSF; for ∆Tm [°C] NAD+: with 200 µM NAD+; for ∆Tm [°C] NADH: with 200 µM NADH; for ∆Tm [°C] apo: without cofactor
T1 construct: comprising residues 3–256 of the human HPGD gene (GenBank identifier: 1203982); His6 (GHHHHHH, behind the TEV site) (C, cleaved yes); made in house; host or cells: E. coli BL21(DE3)-R3
T1 sequence (P15428 3-256): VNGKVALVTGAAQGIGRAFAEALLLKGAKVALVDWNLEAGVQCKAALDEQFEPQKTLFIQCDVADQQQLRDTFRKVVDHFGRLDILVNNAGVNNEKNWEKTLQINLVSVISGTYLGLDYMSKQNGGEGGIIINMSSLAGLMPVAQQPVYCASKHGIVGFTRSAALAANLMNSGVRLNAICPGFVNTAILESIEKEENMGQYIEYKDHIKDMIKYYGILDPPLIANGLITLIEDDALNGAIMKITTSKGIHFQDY
Experimental: A correlation between the ΔTm and the inhibitory potency has been shown in a number of protein-ligand systems, particularly for kinases [32]–[34].
Studies to assess the thermal stability of human 15-PGDH in presence of compounds were performed as described previously, with variations. Briefly, the protein was diluted to a final assay concentration of 1 µM in 100 mM Tris buffer pH 8.0, containing 0.01% Tween-20 and 1∶1000 SYPRO orange dye (Invitrogen). […] Compounds were added at a ratio of 1∶5 from appropriate stock solutions in 10% (v/v) DMSO to comprise either 50 or 250 µM final concentrations. Heat denaturation curves were recorded using a RT-PCR instrument (Mx3005p, Agilent) applying a temperature gradient of 2°C/min. […] 2.5 (ftp://ftp.sgc.ox.ac.uk/pub/biophysics) and PRISM 5.0 (GraphPad Software, Inc.).

[2] = target: T1, human 15-PGDH; experiment: qHTS and 24-point re-test: fluorescence assay of NAD+ reduction to NADH on PGE2 oxidation (PubChem AID 894); type: biochemical; conditions: potency in 24-point titrations on re-test; 20 nM 15-PGDH, 1 mM NAD+, 30 µM PGE2, pH 8.0; read-out: qHTS IC50
Experimental: The assay was miniaturized to a 4-µL volume in 1536-well format: enzyme (3 µL) was dispensed first, followed by a pintool transfer of library compounds dissolved in DMSO. After equilibration, a substrate dispense (1 µL) initiated the enzymatic reaction (see Materials and Methods, for detailed protocol description). […] Hits associated with low-efficacy (<40% maximum inhibition), incomplete curves, as well as those displaying only a single-point inhibition at the top concentration tested were eliminated from further consideration. Similarly, the collection of real-time kinetic data allowed the autofluorescence of each compound to be evaluated by comparing the initial fluorescence read at top concentration with the mean value of uninhibited assay controls: compounds whose top-concentration initial well fluorescence exceeded six standard deviations over the mean were flagged as potential autofluorescent artifacts, [28] (see example in supplementary information Figure S1E). The complete screening and followup results are available in PubChem (PubChem Assay ID 894).
The enzymatic reaction was performed in 50 mM Tris-HCl pH 8.0, containing 0.01% Tween 20. […] The high-throughput screen was performed on a fully integrated robotic system (Kalypsys Inc, San Diego, CA) as described elsewhere. Library compounds, arrayed as seven-point inter-plate concentration series, were screened from the lowest (3.5 nM) to the highest (57.5 µM) concentration, with plates containing DMSO only, serving to note any systematic drifts in the signal, interspersed evenly throughout the screen (approximately every 50 plates). Briefly, 3 µL of reagents were dispensed into 1536-well Greiner black solid-bottom assay plates using integrated nanoliter solenoid-technology dispensers. Compounds and controls (23 nL) were transferred via Kalypsys pintool equipped with 1,536-pin array (10-nL slotted pins; V&P Scientific, Palo Alto, CA). After a 15-minute incubation (to allow for interaction between compound and enzyme), a 1-µL substrate addition step initiated the reaction. Kinetic data were collected on a ViewLux High-throughput CCD imager (Perkin-Elmer) equipped with standard UV fluorescence optics (exc. 340 nm, em. 450 nm).
Starting fluorescence intensity and the change in fluorescence over the two-minute initial rate period were recorded for every well. Screening data were normalized against no-enzyme (64 wells, columns 3 and 4) and no-compound (32 wells located in column 1) controls, and concentration-response relationships were derived as described previously. A four-parameter Hill equation [47] was fitted to the concentration-response data using publicly available algorithms (http://www.ncgc.nih.gov/pub/openhts/curvefit/).

SMILES	∆Tm [°C] NAD+ [1]	∆Tm [°C] NADH [1]	∆Tm [°C] apo [1]	IC50 [2]
CCN(CC)C(=O)c1sc2nc(-c3cccs3)cc(-c3ccc(Cl)cc3)c2c1N [Compound 36]	0.9 °C	2.9 °C	-1.5 °C	10 µM
Cc1cc([N+](=O)[O-])c2c(c1C)[C@@H]1C=CC[C@@H]1C(c1cccc(Cl)c1)N2 (stereo partly drawn) [Compound 37]	1.1 °C	5.0 °C	-2.0 °C	2 µM
COc1ccc(NS(=O)(=O)Cc2ccccc2Cl)cc1 [Compound 42]	7.5 °C	4.8 °C	-0.5 °C	0.316 µM
COCCNC(=O)c1cc2oc3ccccc3c2n1C [Compound 45]	2.7 °C	2.9 °C	-1.9 °C	1.58 µM
Cc1ccc2cc3c(N)c(C(=O)N4CCC(C)CC4)sc3nc2c1 [Compound 48]	0.5 °C	3.3 °C	-0.6 °C	1 µM
CC(C)(C)OC(=O)NC(Cc1csc2ccccc12)C(=O)CCc1cc(C(F)(F)F)cc(C(F)(F)F)c1 (stereo not drawn) [Compound 50]	1.9 °C	1.7 °C	-1.9 °C	6.31 µM
Cc1ccc(C2=NC(=CN3CCOCC3)C(=O)O2)cc1 [Compound 54]	6.0 °C	3.9 °C	-1.5 °C	2.51 µM
Brc1ccc(-c2cc3n(n2)CCc2nc4ccccc4n2-3)cc1 [Compound 55]	3.7 °C	4.7 °C	0.1 °C	1.12 µM
CC(O)CN(C)C(C)N(CCN(C)C)CCN(C)C (stereo not drawn) [Compound 56]	6.1 °C	0.4 °C	0.0 °C	1 µM
COc1ccc(C(=O)OCC(=O)Nc2c(C)cccc2C)cc1S(=O)(=O)N(C)C [Compound 57]	9.2 °C	1.6 °C	-0.3 °C	2.24 µM
Cc1cc(C(=O)N2CCN(C)CC2)c(C)n1C1CC1 [Compound 59]	6.9 °C	1.7 °C	-6.1 °C	2.24 µM
CNC(C)C(O)c1ccccc1.O=S(=O)(O)O (stereo not drawn) [Compound 84]	1.5 °C	-0.1 °C	0.7 ± 0.1 °C	1.41 µM

Now from value to molecule:

∆Tm [°C] NAD+ [1]	∆Tm [°C] NADH [1]	∆Tm [°C] apo [1]	IC50 [2]	SMILES
7.6 °C	1.5 °C	-0.2 °C	0.631 µM	Fc1ccccc1CSc1nc2cc(Br)cnc2[nH]1 [Compound 60]
	-0.2 °C		0.631 µM	COc1ccc(CNC(=O)CCn2c(-c3cccc(C)c3)n[nH]c2=S)cc1 [Compound 65]
	-0.7 °C		0.355 µM	C=CCn1c(=NC(=O)c2cc(C)n(C)n2)sc2cc(Cl)ccc21 [Compound 66]
2.4 °C	-0.4 °C	-1.8 °C	2.51 µM	O=c1c2ccccc2sn1-c1cc(S(=O)(=O)N2CCOCC2)ccc1N1CCCC1 [Compound 71]
4.0 °C	-7.6 °C	-7.4 °C	2.51 µM	CN(CCc1ccccn1)CC(=O)Nc1ccc(OC(F)(F)F)cc1 [Compound 78]
		-4.1 °C	1.12 µM	Cc1cc(=O)oc2cc(OCC(=O)N3CCCc4ccccc43)ccc12 [Compound 79]
4.5 °C	0.2 °C		0.501 µM	Cc1ccc(-c2nnc(S)n2N=CC=Cc2ccccc2[N+](=O)[O-])cc1 [Compound 80]
